{"source": "paper PMC3776838", "about": "“Detection of Phospho-Sites Generated by Protein Kinase CK2 in CFTR: Mechanistic Aspects of Thr1471 Phosphorylation” (PLoS ONE, 2013)", "key": {"[1]": {"tested_on": "WT, WT/T1471A or Phe508delCFTR", "experiment": "CFTR bands B and C in BHK cells exposed to CHX or Brefeldin A", "type": "cell-based, human", "procedure": "Baby hamster kidney cells (BHK) stably expressing human CFTR (hCFTR) either wild type (WT), or Phe508del, or WT T1471A were growth to reach 70–80% confluency. After 2 h-long treatment with 100 µg/mL cyclohexamide, cells were washed with PBS and incubated with 2 µM CX4945 or its vehicle for the indicated time. At each time-point cells were washed with ice-cold PBS, scraped from the plates, pelleted by centrifugation (1200 g for 5 min at room tempertaure) and lysed in a buffer containing 1% (v/v) Nonidet P40, 50 mM Tris/HCl (pH 7.5) and 150 mM NaCl with fresh protease inhibitor tablets (Roche), 1 µM Okadaic acid (Alexis) and phosphatases inhibitors cocktails 2 and 3 (Sigma). Cells were lysed by incubation on ice for 30 min and then the lysates were cleared by centrifugation at 17000 g for 30 min at 4°C. The supernatant was collected and subjected to protein concentration quantification.\nWestern blot analysis was performed as described in [14] using a modified Laemmli buffer containing 105 mM dithiothreitol (final concentration) to enhance the solubilization of CFTR. 20–30 µg of total proteins were separated on 4–12% precast NuPage® Bis-Tris gradient gels (Invitrogen) according to the manufacturer’s instructions and transferred on to Optitran BA-S 83 nitrocellulose membranes (Whatman) with a semi-dry blotter (Biometra) for 1 h at 150 mA. Membranes were saturated for 1 h with 5% skimmed milk in Tris-buffered saline (TBS) containing 0.2% Tween 20. Immunoblots were developed by enhanced chemiluminescence, detected on Kodak Image Station 440 cf and analyzed by the Kodak 1D image software. Tubulin was used as loading control.\nSupplementary file pone.0074232.s004.tif: Figure S4 BHK cells expressing WT, WT/T1471A or Phe508delCFTR were exposed to either cycloheximide (CHX, 100 µg/ml) or Brefeldin A (BFA, 200 ng/ml). […] [a] Glozman R, Okiyoneda T, Mulvihill CM, Rini JM, Barriere H, Lukacs GL (2009) N-glycans are direct determinants of CFTR folding and stability in secretory and endocytic membrane traffic. J. Cell Biol. 184, 847–862. (TIF) Click here for additional data file."}, "CK1": {"tested_on": "CK1", "experiment": "Phosphorylation of the 42 amino acid CFTR peptide by CK1", "type": "biochemical", "conditions": "not shown; listed as 42 amino acid peptide", "description": "(§1) CK1 isoforms and PLK 2 and 3 were obtained as described in [21], and [22], respectively.\n(§2) Recombinant mouse full length CFTR (mCFTR) was cloned, expressed and purified as described in [20]. A 42-mer peptide reproducing the C-terminal tail of human CFTR (residues 1439–1480) was expressed in Escherichia coli with an N-terminal His tag and purified using affinity chromatography (Talon) followed by cleavage of the His tag by thrombin. Further details are given in the Material S1.\n(§3) Peptides derived from human CFTR C-terminal region were phosphorylated by incubation in a 20-µl volume containing 50 mM Tris/HCl, pH 7.5, 10 mM MgCl2, 100 mM NaCl, and 50 µM [γ-^33P]ATP (specific radioactivity 1,500–2,000 cpm/pmol). The reaction was started by the addition of the indicated protein kinases. […] Samples were separated on Tricine-SDS-PAGE following the Schägger’s protocol in a running buffer composed of 100 mM Tris/HCl, pH 8.3, 100 mM Tricine, 0.1% (w/v) SDS. ^33P incorporation was evaluated by gels autoradiography on PerkinElmer’s Cyclone Plus Storage Phosphor System. Initial rate data were analyzed with the program Prism (GraphPad Software, La Jolla, CA)."}, "[2]": {"target": "T1, CK2 holoenzyme (CK2 α2β2) (Homo sapiens, UniProt P67870+P68400)", "T1 construct": "made in house; host or cells: Escherichia coli", "T1 sequence (P68400 whole entry)": "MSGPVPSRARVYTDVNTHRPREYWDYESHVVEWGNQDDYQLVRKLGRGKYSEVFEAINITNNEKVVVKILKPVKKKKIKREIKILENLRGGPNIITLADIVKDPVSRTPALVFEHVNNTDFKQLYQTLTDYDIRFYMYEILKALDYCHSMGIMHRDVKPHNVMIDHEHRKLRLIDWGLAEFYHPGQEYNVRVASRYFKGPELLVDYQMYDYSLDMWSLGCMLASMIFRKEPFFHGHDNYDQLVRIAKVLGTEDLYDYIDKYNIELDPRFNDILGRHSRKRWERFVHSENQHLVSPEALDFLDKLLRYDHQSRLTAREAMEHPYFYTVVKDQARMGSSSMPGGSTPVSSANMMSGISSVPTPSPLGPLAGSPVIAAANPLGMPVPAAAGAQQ", "T1 sequence (P67870 whole entry)": "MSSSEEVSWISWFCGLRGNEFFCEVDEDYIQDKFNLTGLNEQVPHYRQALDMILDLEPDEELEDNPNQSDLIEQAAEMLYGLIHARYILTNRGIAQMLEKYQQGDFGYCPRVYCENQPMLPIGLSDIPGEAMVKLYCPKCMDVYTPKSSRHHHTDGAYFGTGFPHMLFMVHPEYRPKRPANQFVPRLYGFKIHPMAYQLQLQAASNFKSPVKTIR", "experiment": "Phosphorylation of CFTR C-terminal peptides by CK2 holoenzyme (33P incorporation)", "type": "biochemical", "conditions": "pH 7.5, 50 µM [γ-33P]ATP, 10 min, 37°C; for Kprime / Khalf / Vmax: Figure 3C, allosteric (sigmoidal) model, GraphPad Prism; for Kprime: Kprime = Khalf^h, not equal to Km unless h = 1; for phosphorylation by CK2 holoenzyme: Tricine-SDS-PAGE, autoradiography, Figures 2A and 3", "procedure": "(§4) Human CK2, both the α-catalytic subunit and the α2β2-holoenzyme were expressed in Escherichia coli. CK2α2β2 holoenzyme was reconstituted by mixing pellets expressing CK2α and CK2β independently. Cells were lysed by French press at 4°C in Tris/HCl 25 mM, pH 8, NaCl 0.4 M, DTT 1 mM, proteases inhibitors cocktail (Roche). The soluble fraction obtained after 30 min centrifugation at 15000 g was applied on Heparin-Sepharose and the proteins were separated using a gradient elution (0.4–1 M NaCl). Fractions containing CK2 were further purified by size-exclusion chromatography using a buffer composed by Tris/HCl 25 mM, pH 8, NaCl 0.5 M, DTT 1 mM.\nas §2\nSynthetic peptide encompassing the last 20 residues of human CFTR C-terminal domain ([…], residues 1461–1480) was obtained by solid phase peptide synthesis method using a multiple peptide synthesizer (SyroII, MultiSynTech GmbH) on p-Benzyloxybenzyl alcohol resin (100–200 mesh) HMP resin (Novabiochem). The fluoren-9-ylmethoxycarbonyl (Fmoc) strategy was used throughout the peptide chain assembly, utilizing O-(7-Azabenzotriazol-1-yl)-N,N,N′,N′-tetramethyluronium hexafluorophosphate (HATU) as coupling reagent. The side-chain protected amino acid building blocks used were: N-α-Fmoc-Nω-(2,2,4,6,7-pentamethyldihydrobenzofuran-5-sulfonyl)-L-arginine, N-α-Fmoc-γ-tert-butyl-L-glutamic acid, N-α-Fmoc-β-tert-butyl-L-aspartic acid, N-α-Fmoc-O-tert-butyl-L-threonine, N-α-Fmoc-Nε-(tert-butyloxycarbonyl)-L-lysine, N-α-Fmoc-N-γ-trityl-L-glutamine. Cleavage of the peptide was performed by reacting the peptidyl-resin with a mixture containing TFA/ethanedithiol/phenol 5% for 2.5 h. Crude peptide were purified by a preparative reverse phase HPLC. Molecular mass of the peptide were confirmed by mass spectroscopy on a MALDI TOF-TOF mass spectrometer (model 4800– AB Sciex). The purity (>90%) was evaluated by analytical reverse phase HPLC.\n(§5) Peptides derived from human CFTR C-terminal region were phosphorylated by incubation in a 20-µl volume containing 50 mM Tris/HCl, pH 7.5, 10 mM MgCl2, 100 mM NaCl, and 50 µM [γ-^33P]ATP (specific radioactivity 1,500–2,000 cpm/pmol). The reaction was started by the addition of the indicated protein kinases. The reaction mixtures were incubated for 10 minutes at 37°C and stopped by the addition of 2× concentrated Tricine sample buffer (450 mM Tris HCl, pH 8.45, 12% (v/v) glycerol, 4% (w/v) SDS, 0.0025% (w/v) Coomassie Blue G, 0.0025% (w/v) Phenol Red and 105 mM DTT). Samples were separated on Tricine-SDS-PAGE following the Schägger’s protocol in a running buffer composed of 100 mM Tris/HCl, pH 8.3, 100 mM Tricine, 0.1% (w/v) SDS. ^33P incorporation was evaluated by gels autoradiography on PerkinElmer’s Cyclone Plus Storage Phosphor System. Initial rate data were analyzed with the program Prism (GraphPad Software, La Jolla, CA)."}, "PLK3": {"tested_on": "PLK3", "experiment": "Phosphorylation of the 42-mer CFTR peptide by PLK3", "type": "biochemical", "conditions": "same conditions as with CK2 holoenzyme, Figure 2B", "description": "as §1, §2, §3"}, "CK2 α-catalytic subunit": {"tested_on": "CK2 α-catalytic subunit", "experiment": "Phosphorylation of the 42-mer CFTR peptide by isolated CK2 α-catalytic subunit", "type": "biochemical, human", "conditions": "0.4 µg peptide, pH 7.5, 50 µM [γ-33P]ATP, 10 min, 37°C, autoradiography, Figure 2A", "procedure": "as §4\nRecombinant mouse full length CFTR (mCFTR) was cloned, expressed and purified as described in [20]. […]\nas §3, with “cpm/pmol).” for “cpm/pmol). The reaction was started by the addition of the indicated protein kinases.”"}, "PLK2": {"tested_on": "PLK2", "experiment": "Phosphorylation of the 42-mer CFTR peptide by PLK2", "type": "biochemical", "conditions": "same conditions as with CK2 holoenzyme, Figure 2B", "description": "as §1, §2, §3"}, "GCK/FAM20C": {"tested_on": "GCK/FAM20C", "experiment": "Phosphorylation of the 42 amino acid CFTR peptide by Golgi apparatus casein kinase", "type": "biochemical", "conditions": "not shown; listed as 42 amino acid peptide", "procedure": "as §2, §5"}, "[3]": {"conditions": "CHX 100 µg/ml, 2 h, Figures 5 and S4"}, "[4]": {"conditions": "listed as 42 amino acid peptide"}, "[5]": {"conditions": "listed as 42 amino acid-long recombinant fragment"}}, "note": "Entries after “also recorded” stand apart in the source; their conditions may differ."}
{"molecule": "C[C@H]1CCC/C=C/[C@@H]2C[C@H](O)C[C@H]2[C@H](O)/C=C/C(=O)O1", "note": "[Brefeldin A]", "values": [{"measurement": "effect on CFTR band B (immature core-glycosylated, ER-resident)", "setting": "[1]; Brefeldin A 200 ng/ml, Figure S4", "value": "opposite effects on the fate of band B; also recorded: band B increases"}]}
{"molecule": "C[C@@H]1C[C@@H]([C@H](O)CC2CC(=O)NC(=O)C2)C(=O)[C@@H](C)C1", "note": "[CHX, cycloheximide]", "values": [{"measurement": "effect on CFTR band B (immature core-glycosylated, ER-resident)", "setting": "[1]; [3]", "value": "fast and almost complete disappearance of band B; also recorded: attenuation/disappearance of the ER-resident band B of CFTR"}, {"measurement": "effect on CFTR band C (mature fully glycosylated)", "setting": "[1]; [3]", "value": "much slower; also recorded: the fully mature band C is not affected by CHX treatment"}]}
{"molecule": "CFTR[1439-1480]: 42-mer peptide reproducing the C-terminal tail of human CFTR (residues 1439–1480), expressed in Escherichia coli with N-terminal His tag, cleaved by thrombin (QAISPSDRVKLFPHRNSSKCKSKPQIAALKEETEEEVQDTRL; left off: His tag, N-terminal, cleaved)", "values": [{"measurement": "phosphorylation by CK1", "setting": "CK1", "value": "nor by other acidophilic Ser/Thr kinases (CK1, PLK2/3, GCK/FAM20C); also recorded: unable to phosphorylate the 42 amino acid peptide"}, {"measurement": "Kprime", "setting": "[2]", "value": 3.13, "unit": "µM"}, {"measurement": "Khalf", "setting": "[2]", "value": 1.49, "unit": "µM"}, {"measurement": "Vmax", "setting": "[2]", "value": 90.5, "unit": "DLUx10^-6"}, {"measurement": "phosphorylation by CK2 holoenzyme", "setting": "[2]; [4]", "value": "readily phosphorylated at Thr1471"}, {"measurement": "phosphorylation by CK2 holoenzyme", "setting": "[2]; [5]", "value": "readily phosphorylated by CK2 holoenzyme"}, {"measurement": "phosphorylation by CK2 holoenzyme", "setting": "[2]; listed as recombinant fragment of human CFTR", "value": "readily phosphorylated, with favorable kinetics, at Thr1471 by CK2 holoenzyme"}, {"measurement": "phosphorylation by PLK3", "setting": "PLK3", "value": "very low as compared to that obtained with CK2 holoenzyme"}, {"measurement": "phosphorylation by PLK3", "setting": "PLK3; [4]", "value": "nor by other acidophilic Ser/Thr kinases (CK1, PLK2/3, GCK/FAM20C); also recorded: a weak phosphorylation was observed"}, {"measurement": "phosphorylation by isolated CK2 catalytic α-subunit", "setting": "CK2 α-catalytic subunit; [4]", "value": "neither by its isolated catalytic subunit"}, {"measurement": "phosphorylation by isolated CK2 catalytic α-subunit", "setting": "CK2 α-catalytic subunit; [5]", "value": "not by the isolated catalytic α-subunit alone"}, {"measurement": "phosphorylation by PLK2", "setting": "PLK2", "value": "very low as compared to that obtained with CK2 holoenzyme"}, {"measurement": "phosphorylation by PLK2", "setting": "PLK2; [4]", "value": "nor by other acidophilic Ser/Thr kinases (CK1, PLK2/3, GCK/FAM20C); also recorded: a weak phosphorylation was observed"}, {"measurement": "phosphorylation by GCK/FAM20C", "setting": "GCK/FAM20C", "value": "nor by other acidophilic Ser/Thr kinases (CK1, PLK2/3, GCK/FAM20C); also recorded: unable to phosphorylate the 42 amino acid peptide"}]}
{"molecule": "KPQIAALKEETEEEVQDTRL [CFTR[1461-1480], Synthetic peptide encompassing the last 20 residues of human CFTR C-terminal domain]", "values": [{"measurement": "Kprime", "setting": "[2]", "value": 1430, "unit": "µM"}, {"measurement": "Khalf", "setting": "[2]", "value": 1290, "unit": "µM"}, {"measurement": "Vmax", "setting": "[2]", "value": 1477, "unit": "DLUx10^-6"}, {"measurement": "phosphorylation by CK2 holoenzyme", "setting": "[2]; listed as shorter synthetic peptide encompassing Thr1471", "value": "also phosphorylated by CK2 albeit with lower efficiency"}, {"measurement": "phosphorylation by CK2 holoenzyme", "setting": "[2]; listed as synthetic peptide encompassing the last 20 residues of hCFTR", "value": "can also be phosphorylated by CK2 holoenzyme, although much less efficiently"}]}
